Where two headings read alike, the source gives them in different places.
Biological target: T1, PD-1/PD-L1 (Homo sapiens, UniProt Q9NZQ7)
T1 construct: made in house; host or cells: HEK293T
Experiment: PD-1/PD-L1 Homogenous Time-Resolved Fluorescence (HTRF) binding assay
Conditions: PD-L1-His 10 nM, PD-1-Ig 20 nM, read-out: Range or IC50
Outline: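 Binding measured in dPBS with 0.1% BSA and 0.05% Tween-20, detected by HTRF with europium cryptate anti-Ig (1 nM final) and APC anti-His (20 nM final) added over the binding reaction. Counter-assays used human PD-1-Ig/PD-L2-His (20 and 5 nM) and CD80-His/PD-L1-Ig (100 and 10 nM).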

T1 sequence (Q9NZQ7 with tags, fused parts or gaps): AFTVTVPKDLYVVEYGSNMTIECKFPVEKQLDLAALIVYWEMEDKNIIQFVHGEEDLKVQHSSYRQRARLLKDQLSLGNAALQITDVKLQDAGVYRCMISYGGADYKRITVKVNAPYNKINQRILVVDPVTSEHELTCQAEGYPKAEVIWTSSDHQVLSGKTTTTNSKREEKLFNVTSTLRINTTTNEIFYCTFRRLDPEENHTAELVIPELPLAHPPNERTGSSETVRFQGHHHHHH

Cc1c(COc2cc(OCc3cncc(C#N)c3)c(CN3CC(=O)NC(=O)C3)cc2Cl)cccc1-c1cccc(OCCCN2CC[C@@H](O)C2)c1C [Example 2329, (R)-5-((4-chloro-2-((3,5-dioxopiperazin-1-yl)methyl)-5-((3′-(3-(3-hydroxypyrrolidin-1-yl)propoxy)-2,2′-dimethyl-[1,1′-biphenyl]-3-yl)methoxy)phenoxy)methyl)nicotinonitrile]
IC50 (value given as range class): 0.21 to 10 nM

Cc1c(COc2cc(OCc3cncc(C#N)c3)c(CN3CCN(C)C(=O)C3)cc2Cl)cccc1-c1cccc(OCCCN2CC[C@@H](O)C2)c1C [Example 2330, (R)-5-((4-chloro-5-((3′-(3-(3-hydroxypyrrolidin-1-yl)propoxy)-2,2′-dimethyl-[1,1′-biphenyl]-3-yl)methoxy)-2-((4-methyl-3-oxopiperazin-1-yl)methyl)phenoxy)methyl)nicotinonitrile]
IC50 (value given as range class): 0.21 to 10 nM

Cc1c(COc2cc(OCc3cncc(C#N)c3)c(CN3CCNC(=O)C3)cc2Cl)cccc1-c1cccc(OCCCN2CC[C@@H](O)C2)c1C [Example 2331, (R)-5-((4-chloro-5-((3′-(3-(3-hydroxypyrrolidin-1-yl)propoxy)-2,2′-dimethyl-[1,1′-biphenyl]-3-yl)methoxy)-2-((3-oxopiperazin-1-yl)methyl)phenoxy)methyl)nicotinonitrile]
IC50 (value given as range class): 0.21 to 10 nM

Cc1c(COc2cc(OCc3cncc(C#N)c3)c(CN3CCCC[C@H]3C(=O)O)cc2Cl)cccc1-c1cccc(OCCCN(C)C[C@H](O)CO)c1C [Example 2332, (S)-1-(5-chloro-2-((5-cyanopyridin-3-yl)methoxy)-4-((3′-(3-(((S)-2,3-dihydroxypropyl)(methyl)amino)propoxy)-2,2′-dimethyl-[1,1′-biphenyl]-3-yl)methoxy)benzyl)piperidine-2-carboxylic Acid]
IC50 (value given as range class): 0.21 to 10 nM

Cc1c(COc2cc(OCc3cncc(C#N)c3)c(CN3CCCC[C@H]3C(=O)O)cc2Cl)cccc1-c1cccc(OCCCNC[C@H](O)CO)c1C [Example 2333, (S)-1-(5-chloro-2-((5-cyanopyridin-3-yl)methoxy)-4-((3′-(3-(((S)-2,3-dihydroxypropyl)amino)propoxy)-2,2′-dimethyl-[1,1′-biphenyl]-3-yl)methoxy)benzyl)piperidine-2-carboxylic Acid]
IC50 (numeric IC50): 0.9 nM

Cc1c(COc2cc(OCc3cncc(C#N)c3)c(CN3CCCCC3CO)cc2Cl)cccc1-c1cccc(OCCCN2CC[C@@H](O)C2)c1C (stereo partly drawn) [Example 2334, 5-((4-chloro-2-((2-(hydroxymethyl)piperidin-1-yl)methyl)-5-((3′-(3-((R)-3-hydroxypyrrolidin-1-yl)propoxy)-2,2′-dimethyl-[1,1′-biphenyl]-3-yl)methoxy)phenoxy)methyl)nicotinonitrile]
IC50 (value given as range class): 0.21 to 10 nM

Cc1c(COc2cc(OCc3cncc(C#N)c3)c(CNC(CO)CO)cc2Cl)cccc1-c1cccc(NC(=O)c2ncccc2CO)c1C [Example 2340, N-(3′-((2-chloro-5-((5-cyanopyridin-3-yl)methoxy)-4-(((1,3-dihydroxypropan-2-yl)amino)methyl)phenoxy)methyl)-2,2′-dimethyl-[1,1′-biphenyl]-3-yl)-3-(hydroxymethyl)picolinamide]
IC50 (value given as range class): 10 to 100 nM

Cc1c(COc2cc(OCc3cncc(C#N)c3)c(CN[C@](C)(CO)C(=O)O)cc2Cl)cccc1-c1cccc(OCC2(CN3CC[C@@H](O)C3)CC2)c1C [Example 2341, (R)-2-((5-chloro-2-((5-cyanopyridin-3-yl)methoxy)-4-((3′-((1-(((R)-3-hydroxypyrrolidin-1-yl)methyl)cyclopropyl)methoxy)-2,2′-dimethyl-[1,1′-biphenyl]-3-yl)methoxy)benzyl)amino)-3-hydroxy-2-methylpropanoic Acid]
IC50 (value given as range class): 0.21 to 10 nM

Cc1c(COc2cc(OCc3cncc(C#N)c3)c(CNC(CO)CO)cc2Cl)cccc1-c1cccc(OCC2(CN3CC[C@@H](O)C3)CC2)c1C [Example 2342, (R)-5-((4-chloro-2-(((1,3-dihydroxypropan-2-yl)amino)methyl)-5-((3′-((1-((3-hydroxypyrrolidin-1-yl)methyl)cyclopropyl)methoxy)-2,2′-dimethyl-[1,1′-biphenyl]-3-yl)methoxy)phenoxy)methyl)nicotinonitrile]
IC50 (value given as range class): 0.21 to 10 nM

Cc1c(COc2cc(OCc3cncc(C#N)c3)c(CN3CCCC[C@H]3C(=O)O)cc2Cl)cccc1-c1cccc(OCC2(CN3CC[C@@H](O)C3)CC2)c1C [Example 2346, (S)-1-(5-chloro-2-((5-cyanopyridin-3-yl)methoxy)-4-((3′-((1-(((R)-3-hydroxypyrrolidin-1-yl)methyl)cyclopropyl)methoxy)-2,2′-dimethyl-[1,1′-biphenyl]-3-yl)methoxy)benzyl)piperidine-2-carboxylic Acid]
IC50 (value given as range class): 0.21 to 10 nM

Cc1c(COc2cc(OCc3cncc(C#N)c3)c(CNC(CO)CO)cc2Cl)cccc1-c1cccc(NC(=O)CNC2CC2)c1C [Example 2347, N-(3′-((2-chloro-5-((5-cyanopyridin-3-yl)methoxy)-4-(((1,3-dihydroxypropan-2-yl)amino)methyl)phenoxy)methyl)-2,2′-dimethyl-[1,1′-biphenyl]-3-yl)-2-(cyclopropylamino)acetamide]
IC50 (value given as range class): 0.21 to 10 nM

Cc1c(COc2cc(OCc3cncc(C#N)c3)c(CN[C@@](C)(CO)C(=O)O)cc2Cl)cccc1-c1cccc(OCC2(CN3CC[C@@H](O)C3)CC2)c1C [Example 2348, (S)-2-((5-chloro-2-((5-cyanopyridin-3-yl)methoxy)-4-((3′-((1-(((R)-3-hydroxypyrrolidin-1-yl)methyl)cyclopropyl)methoxy)-2,2′-dimethyl-[1,1′-biphenyl]-3-yl)methoxy)benzyl)amino)-3-hydroxy-2-methylpropanoic Acid]
IC50 (value given as range class): 0.21 to 10 nM

Cc1cc(C(=O)N2CCOCC2)ccc1-c1cccc(COc2cc(OCc3cncc(C#N)c3)c(CNC(CO)CO)cc2Cl)c1C [Example 2349, 5-((4-chloro-2-(((1,3-dihydroxypropan-2-yl)amino)methyl)-5-((2,2′-dimethyl-4′-(morpholine-4-carbonyl)-[1,1′-biphenyl]-3-yl)methoxy)phenoxy)methyl)nicotinonitrile]
IC50 (value given as range class): 10 to 100 nM

Cc1c(COc2cc(OCc3cncc(C#N)c3)c(CNC(CO)CO)cc2Cl)cccc1-c1cccc(Nc2cc(N3CCOCC3)ncn2)c1C [Example 2350, 5-((4-chloro-2-(((1,3-dihydroxypropan-2-yl)amino)methyl)-5-((2,2′-dimethyl-3′-((6-morpholinopyrimidin-4-yl)amino)-[1,1′-biphenyl]-3-yl)methoxy)phenoxy)methyl)nicotinonitrile]
IC50 (value given as range class): 0.21 to 10 nM

Cc1c(COc2cc(OCc3cncc(C#N)c3)c(CNC(CO)CO)cc2Cl)cccc1-c1cccc(Oc2cccc3c2CCNC3=O)c1C [Example 2354, 5-((4-chloro-2-(((1,3-dihydroxypropan-2-yl)amino)methyl)-5-((2,2′-dimethyl-3′-((1-oxo-1,2,3,4-tetrahydroisoquinolin-5-yl)oxy)-[1,1′-biphenyl]-3-yl)methoxy)phenoxy)methyl)nicotinonitrile]
IC50 (value given as range class): 10 to 100 nM

Cc1c(COc2cc(OCc3cncc(C#N)c3)c(CN3CCCC[C@H]3C(=O)O)cc2Cl)cccc1-c1cccc(OCCCN2CCC(C(=O)O)CC2)c1C [Example 2364, (S)-1-(4-((3′-(3-(4-carboxypiperidin-1-yl)propoxy)-2,2′-dimethyl-[1,1′-biphenyl]-3-yl)methoxy)-5-chloro-2-((5-cyanopyridin-3-yl)methoxy)benzyl)piperidine-2-carboxylic Acid]
IC50 (value given as range class): 0.21 to 10 nM

— US10745382B2 (BRISTOL-MYERS SQUIBB COMPANY, priority 2015, dated 2020)
